What all share (format): cell-based, Staphylococcus aureus
Assay [1] has as its system β-lactamase (BlaZ) gene expression in S. aureus strain SHY97-4320. Put plainly: BlaZ gene expression, real-time quantitative RT-PCR, and total RNA. The protocol: Fresh MHB containing or not 8 μg/ml of penicillin G and/or 1 mg/ml of bovine LF (2×2 factorial design) was adjusted to an optical density at 540 nm of 0.04 with an overnight culture of S. aureus and then incubated at 37° C. with agitation (150 rpm). After 4 and 22-h of incubation, aliquots were removed to determine bacterial growth by viable count (colony forming unit per ml, cfu/ml), measuring the culture turbidity (OD540nm) with a spectrophotometer Philips PU and to measure β-lactamase activity in bacterial cells. Following culture under the same condition, bacterial cells were collected for RNA extraction.
Total bacterial RNA was prepared using the RNeasy minikit (Qiagen, Mississauga, ON, Canada). Washed bacteria were first treated with 50 μg/ml of lysostaphin (GramCracker, Ambion, Austin, Tex.) for 10 min at 37° C. and RNA was purified according to the manufacturer's protocol. Contaminating DNA was removed from total RNA by using 1 U of Rnase-free Dnase I (Gibco Life Technologies, Grand Island, N.Y.) in a 10 μl reaction mixture containing approximately 50 ng of total RNA per μl and 20mM Tris-HCl (pH 8.4), 2 mM MgCl2 and 50 mM KCl. The reaction mixture was incubated for 15 min at room temperature, and the Dnase I was inactivated by adding 1 μl of 25 mM EDTA to the mixture and incubating for 10 min at 65° C. before assessing quantity and purity. Amount of cellular RNA was then determined by measuring the OD260 nm and OD280 nm.
Real-Time fluorescence-based 5′ nuclease PCR which is a widely accepted method for measuring gene expression levels was used to quantify β-lactamase BlaZ RNA by RT-PCR on ABI Prism™ 7700 (TaqMan® ) sequence detector (PE Applied Biosystem, Foster City, Calif.). The forward primer, reverse.primer, and TaqMan probe for Real-Time RT-PCR amplification were designed with the PrimerExpress software (PE Applied Biosystem) to specifically amplify the. S. aureus BLAZ gene. Briefly, RNA (50 ng) was added to a 50 μl reaction mixture containing 25 μl of 2×RT-PCR One-Step Universal Master Mix, 1.25 μl of 40×MultiScribe and Rnase Inhibitor Mix, 4.5 μl of the forward primer (10 μM, 5′-[…]-3′, SEQ ID NO:3), 4.5 μl of the reverse primer (10 μM, 5′-[…]-3′, SEQ ID NO:4), and 1.25 μl of TaqMan probe (10 μM, 6FAM-[…]-TAMRA, SEQ ID NO:5). Reverse transcription with the recombinant Moloney Murine Leukemia Virus (M-MuLV) Reverse Transcriptase (0.25 U/μl) was conducted at 48° C. for 30 min. […] The cycle threshold value (CT), indicative of the quantity of target gene at which the fluorescence exceeds a pre-set threshold, was determined and compared to the CT of a standard curve containing known amounts of mRNA (1.1×10^2 to 1.1×10^9) from the BLAZ gene of S. aureus obtained by in vitro transcription. […]

The test system of assay [2] is β-lactamase activity of S. aureus SHY97-4320. Put plainly: β-lactamase activity, nitrocefin assay, human LF. The following applies: 8-μg/ml penicillin G alone. As for the experimental part: Penicillin G was purchased from Novopharm Limited (Toronto, Ontario, Canada). […] Antibiotic stock solutions were always freshly prepared and diluted to the desired concentration in Mueller Hinton broth (MHB) medium (Difco Laboratories, Detroit, MI). β-Lactamase activity was measured using a quantitative spectrophotometric assay with the chromogenic cephalosporin nitrocefin. Bacterial cells were first exposed to penicillin and/or LF during 4 and 22-h in broth. At each time point, the number of cfu/ml were determined and cells aliquots were centrifuged.
The pellets were suspended in 10 mM HEPES buffer (pH 7.4) to an OD415 nm of 0.4 for PC-1 and 4 for strain SHY97-4320. Nitrocefin (100 μM) was added to 20 μl of cells in a final volume of 200 μl. Hydrolysis was measured at 486 nm on a Spectra Max 250 Microplate Spectrophotometer System of Molecular Device (Fisher Scientific, Ottawa, Canada). β-Lactamase activity was expressed as ΔO.D.486 nm/min and corrected for bacterial OD.

The next assay has as its system S. aureus strains. Put plainly: Disk diffusion susceptibility test and cefinase test. The following applies: β-lactamase producing strains. The protocol: For quality control, disk diffusion susceptibility tests, as recommended by the National Committee for Clinical Laboratory Standard, were performed on all strains using standard disk of various antibiotics. After 18 h of incubation at 37° C., the diameter of the zone of complete inhibition of bacterial growth around each disk was measured. Isolates were categorized as sensitive or resistant for a given antibiotic using the recommended interpretative guidelines of the manufacturer.

For the compound `CC1(C)S[C@@H]2[C@H](NC(=O)Cc3ccccc3)C(=O)N2[C@H]1C(=O)O` [penicillin G, Penicillin G], in assay [1] (LF 1 mg/ml and/or penicillin G), the “BlaZ total: total number of copies of BlaZ gene mRNA/ml of culture” value is recorded as 174.9 × 10^5 copies/ml of culture and the “BlaZ: number of copies of BlaZ gene mRNA/50 ng of mRNA” value is given as 22.9 × 10^4 copies/50 ng of mRNA. For the same compound, the RNA in assay [1] (adjusted for an OD540nm of 1.0, LF 1 mg/ml and/or penicillin G) is on record as 3.22 ± 0.49 :g/ml. The “increase in the number of copies of the BlaZ mRNA per ml of culture” value in assay [1] (penicillin G added to the growth medium, P<0.01) is 28 fold. Also, the β-lactamase activity entry in assay [2] is on record as “present”. Moreover, in the assay on S. aureus strains, the “susceptibility by standard disk diffusion and cefinase test” value was “resistance”.

The record behind these values is patent publication US20030134779A1, “Method and composition for treatment and/or prevention of antibiotic-resistant microorganism infections” (priority 2002, published 2003).
